Test results from US20230278972A1, “SUBSTITUTED HALOALKYL SULFONANILIDE HERBICIDES” (FMC Corporation, priority 2020, published 2023).

Legend:
Type in all cases: in vivo
[1] = system: goosegrass (Eleusine indica); test: Test A1 preemergence, goosegrass
Procedure, shortened: (§1)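 Seeds were first planted into a blend of loam soil and sand and given a preemergence directed soil spray. In parallel, pots of the same soil were sown for postemergence application once plants reached 2 to 10 cm and the one- to two-leaf stage. Both used surfactant-containing non-phytotoxic solvent formulations.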

[2] = system: Oat, Wild (wild oat, Avena fatua); test: Test A1 preemergence, Oat, Wild
Procedure, shortened: as §1

[3] = system: ragweed (common ragweed, Ambrosia artemisiifolia); test: Test A1 preemergence, ragweed
Procedure, shortened: as §1

[4] = system: wheat (Triticum aestivum); test: Test A1 preemergence, wheat
Procedure, shortened: as §1

corn (Zea mays) = test: Test A1 postemergence, corn; details: Postemergence
Procedure, shortened: as §1

[5] = system: goosegrass (Eleusine indica); test: Test A1 postemergence, goosegrass; details: Postemergence
Procedure, shortened: (§2)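 Plants grown in pots of loam/sand mix; preemergence = soil-directed spray on seeded pots, postemergence = spray at 1–2 leaves, height 2–10 cm; test chemicals formulated in non-phytotoxic solvent with surfactant.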

kochia (Bassia scoparia) = test: Test A1 postemergence, kochia; details: Postemergence
Procedure, shortened: as §2

[6] = system: Pigweed, Palmer (palmer amaranth, palmer pigweed, Amaranthus palmeri); test: Test A1 postemergence, Pigweed, Palmer; details: Postemergence
Procedure, shortened: (§3)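 Test compounds were formulated in a non-phytotoxic solvent mixture containing a surfactant. For preemergence, seeds sown in a loam soil–sand blend received a directed soil spray. For postemergence, potted plants in the same soil, 2 to 10 cm tall at the one- to two-leaf stage, were sprayed.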

[7] = system: ragweed (common ragweed, Ambrosia artemisiifolia); test: Test A1 postemergence, ragweed; details: Postemergence
Procedure, shortened: as §3

soybean (Glycine max) = test: Test A1 postemergence, soybean; details: Postemergence
Procedure, shortened: as §2

[8] = 31 g ai/ha, 0 to 100 scale (0 no effect, 100 complete control)
[9] = 125 g ai/ha, 0 to 100 scale, 0 no effect, 100 complete control
[10] = 31 g ai/ha, 0 to 100 scale (0 no effect, 100 complete control), 10 days

| Compound | Plant response rating, Goosegrass [1, 8] | Plant response rating, Goosegrass [1, 9] | Plant response rating, Oat, Wild [2, 8] | Plant response rating, Oat, Wild [2, 9] | Plant response rating, Ragweed [3, 8] | Plant response rating, Ragweed [3, 9] | Plant response rating, Wheat [4, 8] | Plant response rating, Wheat [4, 9] | Plant response rating, Corn (corn (Zea mays); [10]) | Plant response rating, Corn (corn (Zea mays); 125 g ai/ha, 0 to 100 scale) | Plant response rating, Goosegrass [5, 10] | Plant response rating, Goosegrass ([5]; 125 g ai/ha, 0 to 100 scale) | Plant response rating, Kochia (kochia (Bassia scoparia); [10]) | Plant response rating, Kochia (kochia (Bassia scoparia); 125 g ai/ha, 0 to 100 scale) | Plant response rating, Pigweed, Palmer [6, 10] | Plant response rating, Pigweed, Palmer ([6]; 125 g ai/ha, 0 to 100 scale) | Plant response rating, Ragweed [7, 10] | Plant response rating, Ragweed ([7]; 125 g ai/ha, 0 to 100 scale) | Plant response rating, Soybean (soybean (Glycine max); [10]) | Plant response rating, Soybean (soybean (Glycine max); 125 g ai/ha, 0 to 100 scale) |
| --- | --- | --- | --- | --- | --- | --- | --- | --- | --- | --- | --- | --- | --- | --- | --- | --- | --- | --- | --- | --- |
| Cc1cc(Br)c(NS(=O)(=O)C(F)(F)F)cc1C1=NOC2(CCCC2)C1 [Compound 309] | 50 | 100 | 20 | 60 | 0 | 20 | 0 | 60 | 0 | 30 | 0 | 30 | 0 | 60 | 0 | 20 | 0 | 50 | 10 | 30 |
| Cc1cc(F)c(C2=NOC3CCCC23)cc1NS(=O)(=O)C(F)(F)F (stereo not drawn) [Compound 310] | 0 | 0 | 0 | 0 | 0 | 20 | 0 | 0 | 0 | 0 | 0 | 0 | 0 | 20 | 0 | 0 | 0 | 30 | 20 | 30 |
| CCc1cc(C)c(C2=NOC3(CCCC3)C2)cc1NS(=O)(=O)C(F)(F)F [Compound 311] | 10 | 60 | 0 | 0 | 0 | 0 | 0 | 0 | 0 | 0 | 0 | 0 | 0 | 0 | 0 | 0 | 0 | 0 | 10 | 40 |
| COc1cc(C)c(NS(=O)(=O)C(F)(F)F)cc1C1=NOC2CCCC12 (stereo not drawn) [Compound 312] | 0 | 50 | 0 | 0 | 0 | 30 | 0 | 0 | 0 | 0 | 0 | 0 | 0 | 0 | 0 | 0 | 0 | 40 | 20 | 20 |
| Cc1cc(C2CC2)c(NS(=O)(=O)C(F)(F)F)cc1C1=NOC2(CCCC2)C1 [Compound 313] | 0 | 20 | 0 | 0 | 0 | 0 | 0 | 0 | 0 | 0 | 0 | 0 | 0 | 20 | 0 | 10 | 0 | 0 | 0 | 20 |
| Cc1cc(C)c(N(COC(=O)OC(C)C)S(=O)(=O)C(F)(F)F)cc1C1=NOC2CCCC12 (stereo not drawn) [Compound 314] | 80 | 90 | 0 | 0 | 0 | 60 | 0 | 50 | 0 | 30 | 60 | 80 | 30 | 70 | 10 | 60 | 0 | 70 | 40 | 50 |
| COC(=O)OCN(c1cc(C2=NOC3CCCC23)c(C)cc1C)S(=O)(=O)C(F)(F)F (stereo not drawn) [Compound 315] | 90 | 100 | 0 | 20 | 20 | 60 | 20 | 70 | 20 | 20 | 80 | 80 | 50 | 80 | 30 | 50 | 20 | 80 | 40 | 60 |
| Cc1cc(C)c(N(COC(=O)OC(C)(C)C)S(=O)(=O)C(F)(F)F)cc1C1=NOC2CCCC12 (stereo not drawn) [Compound 316] | 40 | 90 | 0 | 0 | 0 | 20 | 0 | 0 | 0 | 0 | 0 | 90 | 30 | 70 | 30 | 70 | 0 | 50 | 10 | 50 |
| Cc1cc(C)c(N(COC(=O)N(C)C)S(=O)(=O)C(F)(F)F)cc1C1=NOC2CCCC12 (stereo not drawn) [Compound 317] | 0 | 0 | 0 | 0 | 0 | 0 | 0 | 0 | 0 | 0 | 0 | 0 | 0 | 0 | 0 | 0 | 10 | 0 | 0 | 0 |
